Measured values published in US11459327B1, “Cycloalkyl and hetero-cycloalkyl inhibitors, preparation methods therefor, and use thereof” (Suzhou Zelgen Biopharmaceuticals Co., Ltd., priority 2019, dated 2022).

Legend:
[1] = Pharmacokinetics test evaluation in rats, plasma concentration by LC/MS/MS; assay type: in vivo; settings: male SD rats, 15 mg/kg by gavage; for T1/2 / Tmax / AUC / Cmax: n = 4, mean; for AUC / Cmax: rat, plasma, po
Method: Male SD rats, with a body weight of about 220 g, were given 15 mg/kg solution of the compound of the invention or the control compound by gavage after overnight fasting [10% […] (captisol) and 50 mM sodium citrate (pH 5) as vehicle]. Blood samples were collected at 0.5, 1.0, 2.0, 4.0, 6.0, 8.0, 12.0 and 24 hours after the compound was administrated, and the concentrations of the compound or the control compound in plasma were determined by LC/MS/MS.
The plasma concentration-time curves of Examples 13 and 14 and control compounds were shown in FIG. 1, and the pharmacokinetics parameters were shown in Table 2: […]

[2] = system: NCI-H358(KRAS^G12C mutation) cells; experiment: Cell assay of antiproliferative activity (Celltiter-Glo, 5 days) against NCI-H358 cells; assay type: cell-based; settings: 5 days incubation
How it was run: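 Cells plated overnight, then given a 10-point compound series (stock dilutions 50 μM to 0.003 μM, 100 nL added per well) and grown 5 days. Luminescence read after 10 min shaking at room temperature. IC50 from curve fitting.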

[3] = system: A549(KRAS^G12S mutation) cells; experiment: Cell assay of antiproliferative activity (Celltiter-Glo, 5 days) against A549 cells; assay type: cell-based; settings: Homo sapiens, 120 h, 5 days incubation
Method: Cell assay of antiproliferative activity of compounds against NCI-H358(KRAS^G12C mutation) and A549(KRAS^G12S mutation) cells.
40 μl phosphate buffer was added to the outer wells of the 384 microplate, and 40 μl cell suspension to be tested was added to the other wells. Then the microplate was incubated in a carbon dioxide incubator overnight.
The compounds to be tested were gradiently diluted, each compound was performed 10 concentration gradients (diluted from 50 μM to 0.003 μM) and added 100 nL to the corresponding wells in the microplate. After addition, 40 μl of phosphate buffer was added to each well in rows A and P and columns 1 and 24, and then the microplate was incubated in a carbon dioxide incubator for 5 days.
20 μL of Promega Celltiter-Glo reagent was added to each well of the microplate, and then the luminescence signal was stabilized by oscillating at room temperature for 10 min. Then PekinElmer Envision multi-label analyzer was used to read.
Finally, GraphPad Prism software was used to calculate the IC50 value of the compound and the fitting curve was drawn.
Anti-proliferative activity of the compounds of the present invention against NCI-H358(KRAS^G12C mutation) and A549(KRAS^G12S mutation) cells were shown in Table 1.

NCI-H358 tumor cells = experiment: Pharmacodynamic testing evaluation of anti-tumor activity (H358 CDX tumor model); assay type: in vivo; settings: nude rats
Method: Pharmacodynamic Testing Evaluation of Anti-Tumor Activity (11358 CDX Tumor Model)
100 uL suspension containing 5×10^6 NCI-H358 tumor cells was subcutaneously injected into the right posterior back of nude rats. The health of the rat was monitored daily. Measurements were started when the tumor grew palpable.

MIA PaCa-2 tumor cells = settings: MIA PaCa-2 CDX, nude rats
Method: Pharmacodynamic Testing Evaluation of Anti-Tumor Activity (MIA PaCa-2 CDX Tumor Model)
100 uL suspension containing 5×10^6 MIA PaCa-2 tumor cells was subcutaneously injected into the right posterior abdomen of nude rats. The health of the rat was monitored daily. Measurements were started when the tumor grew palpable. The tumor volume calculation formula was adopted: 0.5×L×W^2, where L and W represent tumor length and width, respectively. The tumor grew to ˜200 mm^3, the rats were randomly divided into groups. Rats were intragastrically administrated the corresponding dose (7.5 mg/Kg) of the compound's CMC-Na suspension every day, and their general status was monitored at the same time. The tumor was measured 3 times a week, and the weight was measured twice a week.

[4] = 30 mg/Kg intragastrically every day, Day 20
[5] = 7.5 mg/Kg intragastrically every day, Day 20

| Structure (SMILES) | IC50 ([2]; Homo sapiens, NCI-H358, 120 h) | IC50 [3] | other results |
| --- | --- | --- | --- |
| C=C(F)C(=O)N1CCN(c2nc(OC[C@@H]3CCCN3C)nc3c2CCN(c2cccc4cccc(Cl)c24)C3)CC1CC#N (stereo partly drawn) [Control compound, reference compound] | – | – | T1/2 [1]: 2.47 h; Tmax [1]: 4.0 h; AUC [1]: 830 ng·h/mL; Cmax [1]: 123 ng/mL |
| C=C(F)C(=O)N1CCN(c2nc(OCC3(CN(C)C)CC3)nc3c2CCN(c2cccc4cccc(Cl)c24)C3)C[C@@H]1CC#N [Example 27] | – | – | IC50 [2]: 0.014 µM; % TGI (NCI-H358 tumor cells; [4]): 89.8%; % Tumor Growth (NCI-H358 tumor cells; [4]): 182%; TV Day 0 (NCI-H358 tumor cells; Day 0 (at grouping), 30 mg/Kg intragastrically every day): 209 mm^3; TV Day 20 (NCI-H358 tumor cells; Day 20, 30 mg/Kg intragastrically every day): 471 mm^3; % TGI (MIA PaCa-2 tumor cells; [5]): 66.6%; % Tumor Growth (MIA PaCa-2 tumor cells; [5]): 145.4%; TV Day 0 (MIA PaCa-2 tumor cells; Day 0 (at grouping), 7.5 mg/Kg intragastrically every day): 197 mm^3; TV Day 20 (MIA PaCa-2 tumor cells; Day 20, 7.5 mg/Kg intragastrically every day): 518 mm^3 |
| C=CC(=O)N1CCN(c2nc(OC[C@H](C)N(C)C3CC3)nc3c2CCN(c2cccc4cccc(C)c24)C3)CC1CC#N (stereo partly drawn) [Example 71, 2-(1-acroloyl-4-(2-((S)-2-(cyclopropyl(methyl)amino)propoxy)-7-(8-methylnaphthalen-1-yl)-5,6,7,8-tetrahydropyrido[3,4-d]pyrimidin-4-yl)piperazin-2-yl) acetonitrile] | 0.15 µM | 11.5 µM | – |
| C=CC(=O)N1CCN(c2nc(OC[C@@H](C)N(C)C3CC3)nc3c2CCN(c2cccc4cccc(C)c24)C3)CC1CC#N (stereo partly drawn) [Example 72, 2-(1-acroloyl-4-(2-((R)-2-(cyclopropyl(methyl)amino)propoxy)-7-(8-methylnaphthalen-1-yl)-5,6,7,8-tetrahydropyrido[3,4-d]pyrimidin-4-yl)piperazin-2-yl) acetonitrile] | 0.18 µM | 10.6 µM | – |
| C=CC(=O)N1CCN(c2nc(O[C@@H](C)CN(C)CC3CC3)nc3c2CCN(c2cccc4cccc(C)c24)C3)CC1CC#N (stereo partly drawn) [Example 76, 2-(1-acroloyl-4-(2-(((S)-1-((cyclopropylmethyl)(methyl)amino)propan-2-yl)oxy)-7-(8-methylnaphthalen-1-yl)-5,6,7,8-tetrahydropyrido[3,4-d]pyrimidin-4-yl)piperazin-2-yl) acetonitrile] | 0.86 µM | 3.5 µM | – |
| C=CC(=O)N1CCN(c2nc(OCCN(C)CC3CCC3)nc3c2CCN(c2cccc4cccc(C)c24)C3)CC1CC#N (stereo not drawn) [Example 82, 2-(1-acroloyl-4-(2-(2-((cyclobutylmethyl)(methyl)amino)ethoxy)-7-(8-methylnaphthalen-1-yl)-5,6,7,8-tetrahydropyrido[3,4-d]pyrimidin-4-yl)piperazin-2-yl) acetonitrile] | 0.16 µM | 6.6 µM | – |

More lines, in order of falling IC50 ([2]; Homo sapiens, NCI-H358, 120 h), values ahead:

| IC50 ([2]; Homo sapiens, NCI-H358, 120 h) | IC50 [3] | Structure (SMILES) | other results |
| --- | --- | --- | --- |
| 1.8 µM | 2.7 µM | C=CC(=O)N1CCN(c2nc(O[C@H](C)CN(C)CC3CC3)nc3c2CCN(c2cccc4cccc(C)c24)C3)CC1CC#N (stereo partly drawn) [Example 77, 2-(1-acroloyl-4-(2-(((R)-1-((cyclopropylmethyl)(methyl)amino)propan-2-yl)oxy)-7-(8-methylnaphthalen-1-yl)-5,6,7,8-tetrahydropyrido[3,4-d]pyrimidin-4-yl)piperazin-2-yl) acetonitrile] | – |
| 0.31 µM | 7.8 µM | C=CC(=O)N1CCN(c2nc(OCCOC3CC3)nc3c2CCN(c2cccc4cccc(C)c24)C3)CC1CC#N (stereo not drawn) [Example 93, 2-(1-acroloyl-4-(2-(2-cyclopropoxyethyoxy)-7-(8-methylnaphthalen-1-yl)-5,6,7,8-tetrahydropyrido[3,4-d]pyrimidin-4-yl)piperazin-2-yl) acetonitrile] | – |
| 0.09 µM | 6.2 µM | C=C(F)C(=O)N1CCN(c2nc(OCCN(C)C3CCC3)nc3c2CCN(c2cccc4ccc(F)c(Cl)c24)C3)CC1CC#N (stereo not drawn) [Example 14, 2-(4-(7-(8-chloro-7-fluoronaphthalen-1-yl)-2-(2-(cyclobutyl(methyl)amino)ethoxy)-5,6,7,8-tetrahydropyrido[3,4-d]pyrimidin-4-yl)-1-(2-fluoroacroloyl)piperazin-2-yl) acetonitrile] | T1/2 [1]: 1.69 h; Tmax [1]: 1.25 h; AUC [1]: 392 ng·h/mL; Cmax [1]: 85.1 ng/mL |
| 0.09 µM | 2.8 µM | C=CC(=O)N1CCN(c2nc(OC[C@@H](C)N(C)CC3CC3)nc3c2CCN(c2cccc4cccc(C)c24)C3)CC1CC#N (stereo partly drawn) [Example 75] | – |
| 0.08 µM | 2.6 µM | C=CC(=O)N1CCN(c2nc(OC[C@H](C)N(C)CC3CC3)nc3c2CCN(c2cccc4cccc(C)c24)C3)CC1CC#N (stereo partly drawn) [Example 74] | – |
| 0.06 µM | 3.7 µM | C=CC(=O)N1CCN(c2nc(OCCN(C)CC3CC3)nc3c2CCN(c2cccc4cccc(C)c24)C3)CC1CC#N (stereo not drawn) [Example 73] | – |
| 0.055 µM | 6 µM | C=C(F)C(=O)N1CCN(c2nc(OCC3(CN(C)C)CC3)nc3c2CCN(c2cccc4cccc(Cl)c24)C3)CC1CC#N (stereo not drawn) [Example 13] | T1/2 [1]: 2.33 h; Tmax [1]: 4.0 h; bioavailability ([1]; conclusion in words): excellent bioavailability; metabolic properties in rats compared with the control compound ([1]; higher Cmax and higher plasma exposure AUC): better metabolic properties in rats; AUC [1]: 1400 ng·h/mL; Cmax [1]: 163 ng/mL |
| 0.05 µM | 2.8 µM | C=CC(=O)N1CCN(c2nc(OCCN(C)[C@@H](C)C3CC3)nc3c2CCN(c2cccc4cccc(C)c24)C3)CC1CC#N (stereo partly drawn) [Example 78] | – |
| 0.04 µM | 3.1 µM | C=CC(=O)N1CCN(c2nc(OCCN(C)[C@H](C)C3CC3)nc3c2CCN(c2cccc4cccc(C)c24)C3)CC1CC#N (stereo partly drawn) [Example 79, 2-(1-acroloyl-4-(2-(2-(((R)-1-cyclopropylmethyl)(methyl)amino)ethoxy)-7-(8-methylnaphthalen-1-yl)-5,6,7,8-tetrahydropyrido[3,4-d]pyrimidin-4-yl)piperazin-2-yl) acetonitrile] | – |
| 0.04 µM | 7.5 µM | C=CC(=O)N1CCN(c2nc(OCCN(C)C3CCC3)nc3c2CCN(c2cccc4cccc(C)c24)C3)CC1CC#N (stereo not drawn) [Example 81, 2-(1-acroloyl-4-(2-(2-((cyclobutyl)(methyl)amino)ethoxy)-7-(8-methylnaphthalen-1-yl)-5,6,7,8-tetrahydropyrido[3,4-d]pyrimidin-4-yl)piperazin-2-yl) acetonitrile] | – |
